Test results: article PMC4198483 (Cancer cell, 2014)
Positions count from the first letter of the chain named.

Experiments:
[1] = target: T1, TIPE3 (TNFAIP8L3) (Mus musculus, UniProt Q3TBL6); assay: vesicle sedimentation assay; format: binding; conditions: 20 µM protein; 1000 µM vesicles of 10% lipid + 90% PC
T1 sequence (Q3TBL6 1-204): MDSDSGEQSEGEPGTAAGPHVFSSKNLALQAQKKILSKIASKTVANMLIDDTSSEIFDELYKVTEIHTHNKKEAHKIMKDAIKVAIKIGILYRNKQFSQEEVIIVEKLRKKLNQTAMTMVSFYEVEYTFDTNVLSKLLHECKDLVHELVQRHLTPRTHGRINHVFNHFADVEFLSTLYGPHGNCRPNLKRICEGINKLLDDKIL

[2] = target: T2, TIPE3 (TNFAIP8L3) (Mus musculus, UniProt Q3TBL6, K33Q/K34Q/K38Q/K42Q); assay: vesicle sedimentation assay; format: binding; conditions: 20 µM protein; 1000 µM vesicles of 10% lipid + 90% PC
T2 sequence (Q3TBL6 1-204 K33Q/K34Q/K38Q/K42Q): T1 sequence (Q3TBL6 1-204) with K33Q, K34Q, K38Q, K42Q

Row | % protein bound to vesicles [1] | % protein bound to vesicles [2] | Substance
1 | > 60% | ~ 30% | PtdIns(4,5)P2
2 | > 60% | – | PtdIns(3,4,5)P3
